From patent publication US20260207637A1, “MODULATOR FOR PROMOTING BINDING OF BUTYROPHILIN 3A1/2A1” (priority 2023, published 2026)
Where two headings read alike, the source gives them in different places.

How the values were obtained:
SKOV3/ELP cells = experiment: EC50 assay of small molecule activated γδ T cells to kill SKOV3/ELP tumor cells; type: cell-based; conditions: γδT cells + SKOV3/ELP, E:T=2:1, co-culture 20 hours, 0.05-100 nM, read-out: SKOV3 killing (EC50)
Description: (§1) γδT cells and SKOV3/ELP tumor cell lines were expanded and cultured in vitro. The SKOV3/ELP cells were digested, and the cells were counted and resuspended in MC5A complete medium, the density of the cell suspension was adjusted and added into a 96-well plate at 5×10^3 cells/100 L/well for overnight incubation. On the next day, the test compound and the control compound were diluted at a 3-fold ratio with DMSO, and 4 μL of the diluted compound was added to 96 μL of culture medium for 25-fold dilution. 5 μL of 25-fold diluted compound was transferred to the corresponding well which had been plated with tumor cells, and the actual detection concentration was in the range of 0.05-100 nM. γδT cells were resuspended in γδT complete medium, and the density of the cell suspension was adjusted according to the effector-target ratio of E:T=2:1, and then the cell was added to the corresponding well at 1×10^4 cells/100 μL/well. After co-culture at 37° C., 5% CO2 for 20 hours, the cells were centrifuged. […] After standing for 18 minutes in the dark, the signal of chemiluminescence was detected. The EC50 value was calculated by four-parameter fitting, with the corresponding signal value of the well with only tumor cells as the minimum killing value, and the corresponding value of the well without tumor cells as the maximum killing value.

[1] = Stability experiment of compounds in human whole blood; type: in vitro ADME; conditions: 37° C., 0-4 h
Description: • (1) An appropriate amount of blank whole blood was added into an EP tube containing sodium heparin, then added the working solution of the test substance to a final concentration of 1 μM, and mixed by vortex; • (2) The sample was placed in a water bath at 37° C. with two parallel experiments; for one experiment, the time points were 0 h, 0.5 h, 1 h, 2 h, and 4 h; another experiment was performed to obtain the absolute zero point, which was compared with the 0 h point. • (3) An appropriate amount of sample was taken out from the incubation system, to which 300 μL of internal standard precipitant was added for protein precipitation; (4) all samples were centrifuged at 6° C. for 10 min (15700×g). • (5) 150 μL of the supernatant was taken out, to which 150 μL of water was added, which was mixed by vortex, and analyzed by LC-MS/MS. The stability data of compounds in human whole blood is as follows: […]

[2] = Stability experiment of compounds in human liver microsomes; type: in vitro ADME; conditions: NADPH, 37° C.
Description: Compounds were prepared as a 10 mM stock solution with DMSO and then diluted with 80% acetonitrile-water to a 100 μM working solution for later use. Human liver microsomes were obtained from BIOIVT.
(1) The liver microsomes taken out from the refrigerator were placed in a 37° C. water bath thermostatic oscillator, pre-incubated for 5 min, and thawed for later use.
(2) A certain amount of NADPH was weighed and added to an appropriate amount of magnesium chloride solution to dissolve into a 2 mM solution for later use.
(3) A mixed solution of the warm incubation system (containing no β-NADPH) was prepared according to the proportions in the “composition of the experimental warm incubation system” above and dispensed at 165 μL/tubes (45 μL/tube for the negative control group and 120 μL/tube for the positive control group).
(4) For the sample at 0 min: 200 μL of internal standard working precipitant was added and then 30 μL of NADPH solution was added.
(5) For other samples: 135 μL NADPH solution was added to initiate the reaction (45 μL magnesium chloride solution was added for the negative control group), and incubated in a 37° C. water bath for 5, 15, 30, and 60 min (incubated in a 37° C. water bath for 60 min for the negative control group), then 60 μL was sampled and added to 200 µL of precipitant containing internal standard.
(6) For the positive control group: 90 L NADPH solution was added to initiate the reaction, and incubated in a 37° C. water bath for 5, 15 min, then 60 μL was sampled and added to 200 μL of precipitant containing internal standard.
(7) For neat sample: 297 μL of water was pipetted into a tube, 1000 μL of internal standard working solution was added, and 3 μL of test compound working solution was added.
(8) All samples were vortexed and centrifuged.
(9) 150 μL of the supernatant was sampled and added to 150 μL of water, mixed uniformly by vortex, and analyzed by LC-MS/MS. The half-life stability data of human liver microsomes is as follows: […]

MV4-11-luc cells = experiment: EC50 assay of small molecule activated γδ T cells to kill MV4-11-luc tumor cells; type: cell-based; conditions: γδT cells + MV4-11-luc, E:T=2:1, co-culture 20 hours, 0.05-100 nM, read-out: MV4-11 killing (EC50)
Description: as §1, with “and MV4-11-luc” for “and SKOV3/ELP”, “The MV4-11-luc” for “The SKOV3/ELP”, “in IMDM” for “in MC5A”, “cells/100 μL/well” for “cells/100 L/well”

Row | SMILES | EC50 (SKOV3/ELP cells) [nM] | T1/2 in human whole blood ([1]; 1 μM) [min] | T1/2 in human liver microsomes [2] [min] | EC50 (MV4-11-luc cells) [nM] | EC50 (SKOV3/ELP cells; Homo sapiens, SK-OV-3) [nM] | half-life at 1 μM ([1]; whole blood (sodium heparin), read-out: T1/2 in human whole blood (converted)) [min] | half-life ([2]; read-out: T1/2 in human liver microsomes) [min] | EC50 (MV4-11-luc cells; Homo sapiens) [nM]
1 | C/C(=C\CC[P@@](=O)(N[C@@H](C)C(=O)O[C@@H]1CCOC1)Oc1ccccc1)CO [Compound 19, (R)-tetrahydrofuran-3-yl ((S)-((R)-5-hydroxy-4-methylpent-3-en-1-yl)(phenoxy)phosphoryl)-L-alaninate] | 0.47 | >480 | 47.8 | 0.004 | – | – | – | –
2 | C/C(=C\CCP(=O)(N[C@@H](C)C(=O)OC(C)C)Oc1ccccc1)CO (stereo partly drawn) [Control compound 1, Isopropyl (((E)-5-hydroxy-4-methylpent-3-en-1-yl)(phenoxy)phosphoryl)-L-alaninate, reference compound] | – | – | – | – | 1.14 | > 480 | 8.7 | 0.05
